Test results published in US6770748B2, “Bicyclonucleoside and oligonucleotide analogue” (priority 1997, dated 2004).

Experiments:
[1] = system: complementary DNA 3′-CGCAAAAAACGA-5′ (SEQ ID NO:12); test: Melting temperature (Tm) of annealing products of antisense oligonucleotide analogues with complementary DNA sense strand; type: binding; details: for Tm for complementary DNA: 100 mM NaCl, 10 mM sodium phosphate buffer (pH 7.2), 4 μM antisense strand, 4 μM sense strand, UV 260 nm; for ΔTm/mod. for complementary DNA: change of Tm per modified residue versus natural strand
Procedure: (§1) The melting temperatures (Tm's) of annealing products between antisense strands, which were the various oligonucleotide analogues synthesized in Example 2, and natural DNA- or RNA-based sense strands were measured to investigate the hybridizing ability of the oligonucleotide analogues of the present invention for complementary DNA and RNA.
(§2) Each sample solution (500 μL) with end concentrations of 100 mM NaCl, 10 mM sodium phosphate buffer (pH 7.2), 4 μM antisense strand, and 4 μM sense strand, respectively, was bathed in boiling water, and slowly cooled to room temperature over the course of 10 hours. The sample solution was gradually cooled to 5° C., kept at 5° C. for a further period of 20 minutes, and then started to be measured, with a stream of nitrogen being passed through a cell chamber of a spectrophotometer (UV-2100PC, Shimadzu) for prevention of moisture condensation. The sample temperature was raised at a rate of 0.2° C./minute until 90° C., and the ultraviolet absorption at 260 nm was measured at intervals of 0.1° C. To prevent changes in the sample concentration with increases in the temperature, the cell was provided with a closure, and a drop of a mineral oil was applied onto the surface of the sample solution during measurement.

[2] = system: complementary RNA 3′-r(CGCAAAAAACGA) (SEQ ID NO:12); test: Melting temperature (Tm) of annealing products of antisense oligonucleotide analogues with complementary RNA sense strand; type: binding; details: for Tm for complementary RNA: 100 mM NaCl, 10 mM sodium phosphate buffer (pH 7.2), 4 μM antisense strand, 4 μM sense strand, UV 260 nm; for ΔTm/mod. for complementary RNA: change of Tm per modified residue versus natural strand
Procedure: as §1, §2

[3] = biological target: snake venom phosphodiesterase (Crotalus adamanteus, UniProt J3SEZ3)
[4] = total increase versus natural strand

snake venom phosphodiesterase, sequence (J3SEZ3 24-851 limits assumed): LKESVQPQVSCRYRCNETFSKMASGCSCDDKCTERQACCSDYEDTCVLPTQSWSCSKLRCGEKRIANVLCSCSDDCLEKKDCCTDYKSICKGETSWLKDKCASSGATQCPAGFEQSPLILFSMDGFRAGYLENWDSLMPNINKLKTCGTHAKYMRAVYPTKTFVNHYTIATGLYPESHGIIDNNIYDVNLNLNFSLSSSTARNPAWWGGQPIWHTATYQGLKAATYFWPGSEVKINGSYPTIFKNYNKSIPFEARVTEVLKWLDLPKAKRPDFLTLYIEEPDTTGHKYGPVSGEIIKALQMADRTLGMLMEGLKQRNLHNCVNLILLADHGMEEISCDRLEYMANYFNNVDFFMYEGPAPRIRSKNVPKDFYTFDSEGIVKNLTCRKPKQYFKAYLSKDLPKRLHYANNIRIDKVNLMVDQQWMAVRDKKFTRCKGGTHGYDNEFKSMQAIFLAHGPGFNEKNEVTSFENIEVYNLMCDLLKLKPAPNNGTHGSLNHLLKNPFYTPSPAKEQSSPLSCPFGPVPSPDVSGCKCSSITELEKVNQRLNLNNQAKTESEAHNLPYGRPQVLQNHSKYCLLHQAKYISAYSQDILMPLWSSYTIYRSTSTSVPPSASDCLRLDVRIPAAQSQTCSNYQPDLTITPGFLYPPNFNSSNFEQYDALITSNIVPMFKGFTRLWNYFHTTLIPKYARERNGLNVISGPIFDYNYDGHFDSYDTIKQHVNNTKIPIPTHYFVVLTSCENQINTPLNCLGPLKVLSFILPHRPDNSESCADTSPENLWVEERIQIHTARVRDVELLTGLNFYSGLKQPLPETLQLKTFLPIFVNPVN

Molecule	Tm for complementary DNA [1] [°C]	Tm for complementary RNA [2] [°C]	ΔTm/mod. for complementary DNA [1]	ΔTm/mod. for complementary RNA [2]	other results
CC(C)(C)[Si](OC[C@@]12CO[C@@H]([C@H](n3cnc4c(NCc5ccccc5)ncnc43)O1)[C@@H]2OCc1ccccc1)(c1ccccc1)c1ccccc1	–	–	–	–	melting point: 80 to 81 °C
CC(C)C(=O)Nc1nc2c(ncn2[C@@H]2O[C@@]3(CO[Si](c4ccccc4)(c4ccccc4)C(C)(C)C)CO[C@@H]2[C@@H]3OCc2ccccc2)c(=O)[nH]1	–	–	–	–	melting point: 99 to 100 °C
5′-GCGTTTTTTTGCT-3′ [natural, reference compound]	47	45	–	–	–
5′-GCGTTTTTXGCT-3′ [Compound T5X]	52	51	+4 °C	+6 °C	–
5′-GCGTTTTXXGCT-3′ [Compound T4X2]	54	55	+3.5 °C	+5 °C	–
5′-GCGTTTXTTGCT-3′ [Compound T3XT2]	49	50	+2 °C	+5 °C	–
5′-GCGTTXTTTGCT-3′ [Compound T2XT3]	49	49	+2 °C	+4 °C	–
5′-GCGTTXXTTGCT-3′ [Compound T2X2T2]	49	53	+1 °C	+4 °C	–
5′-GCGXTTTTTGCT-3′ [XT6]	50	49	+3 °C	+4 °C	–
5′-GCGXXTTTTGCT-3′ [Compound X2T4]	51	53	+2 °C	+4 °C	–
5′-GCGXXXXXXGCT-3′ [Compound X6]	58	71	+1.8 °C	+4.3 °C	rise in Tm as compared with the natural strand, complementary DNA oligomer [1, 4]: 11 degrees; increase in Tm per modified residue, complementary RNA ([2]; per modified residue versus natural strand): 4 degrees; increase in Tm over the natural strand, complementary RNA [2, 4]: more than 25 degrees
5′-GTTTTTTTTTTTC-3′ [natural type]	–	–	–	–	time until ultraviolet absorption reached a plateau after initiation of the enzyme reaction [3]: about 30 minutes; t½ (half-life) ([3]; pH 8.6): 4.33 min
Cc1cn([C@@H]2O[C@@]3(CO)CO[C@@H]2[C@@H]3O)c(=O)[nH]c1=O [Compound 39a, 2′-O,4′-C-methylene-5-methyluridine]	–	–	–	–	melting point: 194 to 195 °C
